Data set [1] concerns the target T1, human progesterone receptor B (hPRB) (Homo sapiens, UniProt P06401).
T1 construct: expressed in transfected cells; host or cells: Chinese hamster ovary cells (CHO)
T1 sequence (P06401 1-933): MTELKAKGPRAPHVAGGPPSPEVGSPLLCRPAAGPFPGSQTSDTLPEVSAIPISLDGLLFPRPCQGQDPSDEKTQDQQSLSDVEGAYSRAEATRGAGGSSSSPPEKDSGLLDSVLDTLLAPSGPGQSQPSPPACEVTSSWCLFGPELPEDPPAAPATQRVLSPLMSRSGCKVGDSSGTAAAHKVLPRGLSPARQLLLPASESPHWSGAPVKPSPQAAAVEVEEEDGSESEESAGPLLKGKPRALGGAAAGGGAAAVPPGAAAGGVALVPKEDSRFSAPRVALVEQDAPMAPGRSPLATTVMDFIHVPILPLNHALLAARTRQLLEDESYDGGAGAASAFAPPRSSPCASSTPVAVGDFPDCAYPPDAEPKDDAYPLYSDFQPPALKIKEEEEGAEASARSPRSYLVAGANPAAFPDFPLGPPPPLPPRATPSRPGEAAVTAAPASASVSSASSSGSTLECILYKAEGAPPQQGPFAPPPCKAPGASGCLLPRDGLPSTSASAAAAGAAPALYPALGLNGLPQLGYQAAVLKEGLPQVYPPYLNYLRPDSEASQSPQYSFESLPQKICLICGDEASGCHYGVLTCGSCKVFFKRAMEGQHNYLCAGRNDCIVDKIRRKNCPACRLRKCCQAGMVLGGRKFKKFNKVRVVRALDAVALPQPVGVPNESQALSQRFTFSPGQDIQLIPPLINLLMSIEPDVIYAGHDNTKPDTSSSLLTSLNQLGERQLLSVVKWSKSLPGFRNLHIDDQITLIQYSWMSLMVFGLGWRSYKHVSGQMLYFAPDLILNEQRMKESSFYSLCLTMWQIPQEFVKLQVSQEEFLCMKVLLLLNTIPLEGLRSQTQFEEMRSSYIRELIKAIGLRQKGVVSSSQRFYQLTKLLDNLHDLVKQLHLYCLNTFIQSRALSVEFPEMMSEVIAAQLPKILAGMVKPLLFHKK
The data set can be described thus: Transactivative progestagenic agonistic activity in CHO cells transfected with hPRB, MMTV and luciferase. The following applies: MMTV-luciferase, incubation 16 h, 37° C. The format is cell-based. As to the method:
The transactivative progestagenic agonistic activity of the compounds of the invention was measured in Chinese hamster ovary cells (CHO) transfected with the human progesterone receptor B (hPRB), in combination with a mouse mammary tumor virus (MMTV), and luciferase receptor gene (incubation time 16 h, temperature 37° C.) and compared with the activity of (16α)-16-ethyl-21-hydroxy-19-norpregn-4-ene-3,20-dione [according to the procedure described by Schoonen, W. G. E. J. et al., Analyt. Biochem. 261, 222-224 (1998)].

Data set [2] addresses T2, human androgen receptor (hAR) (Homo sapiens, UniProt P10275).
T2 construct: expressed in transfected cells; host or cells: Chinese hamster ovary cells (CHO)
T2 sequence (P10275 1-920): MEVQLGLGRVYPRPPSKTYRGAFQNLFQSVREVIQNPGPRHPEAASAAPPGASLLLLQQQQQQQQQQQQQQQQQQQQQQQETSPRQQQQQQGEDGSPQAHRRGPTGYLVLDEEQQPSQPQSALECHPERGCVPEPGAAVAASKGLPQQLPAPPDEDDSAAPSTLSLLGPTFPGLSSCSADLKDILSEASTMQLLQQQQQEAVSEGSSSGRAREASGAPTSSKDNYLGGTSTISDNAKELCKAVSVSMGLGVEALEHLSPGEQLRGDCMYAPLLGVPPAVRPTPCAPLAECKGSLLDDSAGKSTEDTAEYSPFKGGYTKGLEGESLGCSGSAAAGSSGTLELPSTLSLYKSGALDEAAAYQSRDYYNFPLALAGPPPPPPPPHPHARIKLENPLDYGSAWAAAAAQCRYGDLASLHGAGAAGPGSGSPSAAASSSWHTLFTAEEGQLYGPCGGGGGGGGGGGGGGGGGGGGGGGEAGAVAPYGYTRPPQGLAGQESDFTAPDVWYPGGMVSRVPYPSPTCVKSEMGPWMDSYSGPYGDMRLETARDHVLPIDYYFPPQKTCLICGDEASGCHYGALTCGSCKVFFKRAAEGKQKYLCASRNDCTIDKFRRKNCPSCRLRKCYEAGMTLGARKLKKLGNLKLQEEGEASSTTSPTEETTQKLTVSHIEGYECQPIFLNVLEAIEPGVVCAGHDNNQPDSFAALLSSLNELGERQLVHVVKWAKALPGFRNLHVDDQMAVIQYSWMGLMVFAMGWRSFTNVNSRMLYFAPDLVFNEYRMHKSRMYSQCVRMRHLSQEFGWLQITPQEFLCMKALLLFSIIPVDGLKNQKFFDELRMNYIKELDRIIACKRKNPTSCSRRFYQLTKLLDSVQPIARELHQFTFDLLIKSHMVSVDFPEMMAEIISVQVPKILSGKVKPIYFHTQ
As to the kind of experiment: Transactivative androgen agonistic activity in CHO cells transfected with hAR, MMTV and luciferase. The format is cell-based. The note with it: MMTV-luciferase, incubation 16 h, 37° C. The procedure: The transactivative androgen agonistic activity of the compounds of the invention was measured in Chinese hamster ovary cells (CHO) transfected with the human androgen receptor (hAR), in combination with a mouse mammary tumor virus (MMTV), and luciferase receptor gene (incubation time 16 h, temperature 37° C.) and compared with the activity of 5α-dihydrotestosterone [according to the procedure described by Schoonen, W. G. E. J. et al., Analyt. Biochem. 261, 222-224 (1998)].

The nature of another data set: Oral activity. Type of data set: in vivo. The following applies: found by applicant ("We have found").
Data set [3] can be described thus: Prevention of trabecular bone mineral density (BMD) loss. The format is in vivo. The note with it: found by applicant. From the text: Biological activity of compounds according to the invention can be observed in vivo in the rat serum LH suppression test and in the rat anti-steoporosis test measuring restoration of trabecular bone mineral density. Anabolic effect can be observed on musculus levator ani. In the monkey activity can be observed in the testosterone suppression test. In vivo liver safety can be evaluated in the rabbit upon repeated administration of a compound according to the invention.

The conditions of data set [4]: from literature; cited from earlier work.
The conditions of data set [5]: from literature (Seaman 1985); cited from earlier work.
A short description of data set [6]: Liver safety: BSP retention assay in male castrated rabbits. Type of data set: in vivo, New Zealand White rabbits. The note with it: 10 mg/kg/day per oral for 7 days, BSP 15 mg/kg intravenous. As to the method:
The primary aim of this test was the evaluation of liver function, by measuring the clearance of a single, intravenously injected, dose of bromosulfophthalein (BSP) after 7 days (once daily) per oral treatment of male castrated rabbits with a compound of the invention.
Briefly, this test is performed in mature male castrated New Zealand White rabbits. At least two weeks after castration animals are treated for seven days (once daily) with tablets, or arachis oil containing 5% (v/v) ethanol, resulting in a dose of 10 mg/kg/day of a test compound. Twenty-four hours after the last administration the rabbits were light sedated with 0.15 ml Hypnorm intramuscular, BSP was injected (15 mg/kg intravenous, dissolved in 5% (w/v) mannitol/H2O). Blood is collected at 5, 10, 15 and 20 minutes, BSP content in plasma is determined with a spectrophotometer. The t½ of BSP elimination from the blood is calculated from the obtained data.

A short description of a further data set: Liver toxicity. The note with it: stated without citation.
Where [7] appears, read: vehicle Arachis oil + 5% ethanol.

Structures are written as SMILES. Where two headings read alike, the source gives them in different places.

Regarding `CC1CC2=CC(=O)CCC2C2CCC3(C)C(=CCC(C)C3O)C12` [Compound of Example 3, (7α,17α,17aβ)-17a-Hydroxy-7,17-dimethyl-D-homoestra-4,14-dien-3-one], the “Progestagen activity: Relative agonistic activity (%) versus (16α)-16-ethyl-21-hydroxy-19-norpregn-4-ene-3,20-dione” value in data set [1] came to 47.4%. Besides, the “Androgen activity: Relative agonistic activity (%) versus 5α-dihydrotestosterone” value in data set [2] is on record as 10.2%.

As for `C[C@]1(O)CCC[C@H]2[C@@H]3CCC4=CC(=O)CC[C@@H]4[C@H]3CC[C@@]21C` [17aα-Methyl-19-nor-D-homotestosterone], the Oral activity entry in the data set “Oral activity” is listed as “low activity upon oral administration”. Besides, in data set [3], the “Prevention of trabecular bone mineral density (BMD) loss” value is “unable to prevent trabecular bone mineral density (BMD) loss”.

As to `CCC1(O)CCC=C2C3C(C)CC4=CC(=O)CCC4C3CCC21C` [Compound of Example 6, (7α,17aα)-17a-Hydroxy-7-methyl-D-homo-19-norpregna-4,14-dien-3-one], in data set [1], the “Progestagen activity: Relative agonistic activity (%) versus (16α)-16-ethyl-21-hydroxy-19-norpregn-4-ene-3,20-dione” value came to 91.2%. In addition, the “Androgen activity: Relative agonistic activity (%) versus 5α-dihydrotestosterone” value in data set [2] is recorded as 13.2%.

In the case of `C[C@@H]1CC2=CC(=O)CC[C@@H]2[C@H]2CC[C@@]3(C)[C@@H](CC[C@]3(C)O)[C@@H]21` [7α,17α-dimethylnandrolone], in data set [4], the Oral activity result was “orally active”. Moreover, the Liver toxicity entry in data set [5] is recorded as “severe liver toxicity”.

On to `CCC12CCC3C4CCC(=O)C=C4CCC3C1CCCC2(C)O` [(17aβ)-13-ethyl-17a-hydroxy-17a-methyl-D-homogon-4-en-3-one], for which the Oral activity entry in the data set “Oral activity” is listed as “not orally active”.

On to `CC1CC2=CC(=O)CCC2C2CCC3(C)C(=CCCC3(C)O)C12` [Compound of Example 4, (7α,17aβ)-17a-Hydroxy-7,17a-dimethyl-D-homoestra-4,14-dien-3-one], for which, in data set [1], the “Progestagen activity: Relative agonistic activity (%) versus (16α)-16-ethyl-21-hydroxy-19-norpregn-4-ene-3,20-dione” value stood at 133.7%. The “Androgen activity: Relative agonistic activity (%) versus 5α-dihydrotestosterone” value in data set [2] is 106.9%. Further, the entries for the “T½ BSP” value in data set [6] (setting [7]) and in data set [6] (vehicle Tablet) were 4.9 min and 5.5 min, respectively.

Regarding `CCC12CCC3C4CCC(=O)C=C4CCC3C1CCCC2O` [(17aβ)-13-ethyl-17a-hydroxy-D-homogon-4-en-3-one], the Oral activity entry in the data set “Oral activity” is “not orally active”.

`C#CC1(O)CCC=C2C3CCC4=CC(=O)CCC4C3CCC21C` [Compound of Example 9, (17aα)-17a-Hydroxy-D-homo-19-norpregna-4,14-dien-20-yn-3-one]: in data set [1], the “Progestagen activity: Relative agonistic activity (%) versus (16α)-16-ethyl-21-hydroxy-19-norpregn-4-ene-3,20-dione” value is recorded as 16.0%. In data set [2], the “Androgen activity: Relative agonistic activity (%) versus 5α-dihydrotestosterone” value is reported as 12.3%.

Take `CC1CC2=CC(O)CCC2C2CCC3(C)C(=CCCC3(C)O)C12` [Compound of Example 5, (3β,7α,17aβ)-7,17a-Dimethyl-D-homoestra-4,14-dien-3,17a-diol]: the “Progestagen activity: Relative agonistic activity (%) versus (16α)-16-ethyl-21-hydroxy-19-norpregn-4-ene-3,20-dione” value in data set [1] is 6.4%. For the same compound, the “Androgen activity: Relative agonistic activity (%) versus 5α-dihydrotestosterone” value in data set [2] stood at 36.2%.

As to `CC1CC2=CC(=O)CCC2C2CCC3(C)C(O)CCCC3C12` [7α-Methyl-19-nor-D-homotestosterone], the Oral activity entry in “Oral activity” is “not an orally active compound”.

With `C[C@@H]1CC2=CC(=O)CC[C@@H]2[C@H]2CC[C@@]3(C)C(=CC[C@]3(C)O)[C@@H]21` [Reference compound, (7α,17β)-17-Hydroxy-7,17-dimethylestra-4,14-dien-3-one], the Liver toxicity result in “Liver toxicity” was “severe liver toxicity”.

As for `C[C@]12CCC(=O)C=C1CC[C@@H]1[C@@H]2CC[C@@]2(C)[C@H]1CC[C@]2(C)O` [17α-Methyltestosterone, reference compound], the figures for the “T½ BSP” value in data set [6] (setting [7]) and in data set [6] (vehicle Tablet) were 5.6 min and 6.0 min, respectively.

Take `CCC1CC2=CC(=O)CCC2C2CCC3(C)C(=CCCC3O)C12` [Compound of Example 2, (7α,17aβ)-7-Ethyl-17a-hydroxy-D-homoestra-4,14-dien-3-one]: the “Progestagen activity: Relative agonistic activity (%) versus (16α)-16-ethyl-21-hydroxy-19-norpregn-4-ene-3,20-dione” value in data set [1] came to 0.47%. In addition, in data set [2], the “Androgen activity: Relative agonistic activity (%) versus 5α-dihydrotestosterone” value was found to be 30.5%.

With `CC1(O)CCC=C2C3CCC4=CC(=O)CCC4C3CCC21C` [Compound of Example 8, (17aβ)-17a-Hydroxy-17a-methyl-D-homoestra-4,14-dien-3-one], the “Progestagen activity: Relative agonistic activity (%) versus (16α)-16-ethyl-21-hydroxy-19-norpregn-4-ene-3,20-dione” value in data set [1] was 228.4%. Also, the “Androgen activity: Relative agonistic activity (%) versus 5α-dihydrotestosterone” value in data set [2] was found to be 157.9%.

These data come from patent US20090291929A1, “STEROIDS HAVING A MIXED […] PRO[…]” (N.V. ORGANON, priority 2005, published 2009).
